Experimental data reported in patent US11345700B2, “Methods of preparing inhibitors of influenza viruses replication” (priority 2013, dated 2022).
Read-outs that look alike come from different tables or passages of the source. Marks after values point to notes of the source that are not given here.

Assays:
[1] = test system: Influenza A/Vietnam/1203/2004 (H5N1) virus; type: in vivo, BALB/c mice; conditions: 10 mg/kg p.o. twice a day for 10 days; Treatment (+48 h)
[2] = test system: Influenza A/Victoria/3/75 (H3N2) virus; type: in vivo, BALB/c mice
influenza A = assay: Mouse model of influenza A: lung viral titers; type: in vivo, mice; conditions: for Log10 Reduction vs. Vehicle: study day 6; for Lung Viral Titer: titers on study day 6
influenza A/PR/8/34 = assay: In vivo combination of Compound (1) with zanamivir, influenza A challenge in mice
Text: Efficiency quotient, a composite measure of survival, bodyweight loss and lung function (% survival/(% body weight loss at Day 8)*(Penh at Day 6)) is summarized in Table 19B.

[3] = Human influenza challenge: safety assessment, adverse events; type: in vivo, healthy volunteers (humans)
Text: A list of adverse events occurring in ≥10% of subjects in any treatment group is presented (Table 29). Influenza-like illness was the most frequently reported adverse event, and was reported by an approximately equal proportion of subjects in the placebo and Compound (1) groups.

[4] = 1 mg/kg p.o. twice a day for 10 days starting 2 hours prior to virus exposure
[5] = 3 mg/kg p.o. twice a day for 10 days starting 2 hours prior to virus exposure
[6] = 10 mg/kg p.o. twice a day for 10 days starting 2 hours prior to virus exposure
[7] = Study 1, 30 mg/kg BID from 24 h post infection for 5 days
[8] = Study 2, 3 mg/kg BID from 24 h post infection for 5 days
[9] = Study 2, 10 mg/kg BID from 24 h post infection for 5 days
[10] = Study 2, 30 mg/kg BID from 24 h post infection for 5 days
[11] = Zanamivir 0.3 mg/kg IN x 1 (24 h prior) + Compound (1) 0.3 mg/kg BID (from 2 h prior)
[12] = Zanamivir 0.3 mg/kg IN x 1 (24 h prior) + Compound (1) 1 mg/kg BID (from 2 h prior)
[13] = Zanamivir 1 mg/kg IN x 1 (24 h prior) + Compound (1) 0.1 mg/kg BID (from 2 h prior)
[14] = Zanamivir 1 mg/kg IN x 1 (24 h prior) + Compound (1) 0.3 mg/kg BID (from 2 h prior)
[15] = Zanamivir 1 mg/kg IN x 1 (24 h prior) + Compound (1) 1 mg/kg BID (from 2 h prior)
[16] = Zanamivir 3 mg/kg IN x 1 (24 h prior) + Compound (1) 0.1 mg/kg BID (from 2 h prior)
[17] = Zanamivir 3 mg/kg IN x 1 (24 h prior) + Compound (1) 0.3 mg/kg BID (from 2 h prior)
[18] = Zanamivir 3 mg/kg IN x 1 (24 h prior) + Compound (1) 1 mg/kg BID (from 2 h prior)

With `O=C(O)[C@H]1[C@H]2CC[C@H](CC2)[C@@H]1Nc1nc(-c2c[nH]c3ncc(F)cc23)ncc1F` [Compound (1)] the “MDD ± SD (mean day of death of mice that died on or before day 21)” value [1] was greater than 21, the “Mean Lung Parameters (Day 6): Virus Titer” value [1] was 3.75 ± 0.94 Log10 CCID50/g and the Survivors/Total [1] was 10/10. For the same compound, the “MDD ± SD (mean day of death of mice that died on or before day 21)” value [2, 4] was 9.8, the “Mean Lung Parameters (Day 6): Score (hemorrhage score 0-4)” value (“Mean Lung Parameters (Day 6): Score” for short) [2, 4] was 3.2 and the “Mean Lung Parameters (Day 6): Virus Titer” value [2, 4] was 7.3 Log10 CCID50/g. For the same compound, the “Mean Lung Parameters (Day 6): Weight” value [2, 4] was 274 mg, the Survivors/Total [2, 4] was 4/10 and the “Mean Lung Parameters (Day 6): Score” value [2, 5] was 3.3. The “Mean Lung Parameters (Day 6): Virus Titer” value [2, 5] was 7.2 Log10 CCID50/g, the “Mean Lung Parameters (Day 6): Weight” value [2, 5] was 260 mg and the “Mean Lung Parameters (Day 6): Score” value [2, 6] was 0.1. For the same compound, the “Mean Lung Parameters (Day 6): Virus Titer” value [2, 6] was 6.1 Log10 CCID50/g, the “Mean Lung Parameters (Day 6): Weight” value [2, 6] was 164 mg and the “Log10 Reduction vs. Vehicle” value (influenza A; [7]) was −2.25***. The “Lung Viral Titer” value (influenza A; [7]) was 3.95 Log10 TCID50, the “Log10 Reduction vs. Vehicle” value (influenza A; [8]) was −1.04 and the “Lung Viral Titer” value (influenza A; [8]) was 5.24*** Log10 TCID50. The “Log10 Reduction vs. Vehicle” value (influenza A; [9]) was −1.08, the “Lung Viral Titer” value (influenza A; [9]) was 5.20*** Log10 TCID50 and the “Log10 Reduction vs. Vehicle” value (influenza A; [10]) was −1.75. The “Lung Viral Titer” value (influenza A; [10]) was 4.53*** Log10 TCID50, the “Survival Rate” value (influenza A/PR/8/34; Compound (1) 0.1 mg/kg BID 10 days, 1st dose 2 h prior to infection, Zanamivir 0) was 12.5 and the “Survival Rate” value (influenza A/PR/8/34; Compound (1) 0.3 mg/kg BID 10 days, 1st dose 2 h prior to infection, Zanamivir 0) was 44.4. The “Efficiency Quotient (% survival/(% body weight loss at Day 8)*(Penh at Day 6))” value (influenza A/PR/8/34; Compound (1) 0.3 mg/kg BID, 1st dose 2 h prior to infection, Zanamivir 0) was 0.59, the “Survival Rate” value (influenza A/PR/8/34; Compound (1) 1 mg/kg BID 10 days, 1st dose 2 h prior to infection, Zanamivir 0) was 100 and the “Efficiency Quotient (% survival/(% body weight loss at Day 8)*(Penh at Day 6))” value (influenza A/PR/8/34; Compound (1) 1 mg/kg BID, 1st dose 2 h prior to infection, Zanamivir 0) was 2.32. The “Survival Rate” value (influenza A/PR/8/34; Zanamivir 0.3 mg/kg IN x 1 (24 h prior) + Compound (1) 0.1 mg/kg BID (from 2 h prior)) was 0, the “Efficiency Quotient (% survival/(% body weight loss at Day 8)*(Penh at Day 6))” value (influenza A/PR/8/34; [11]) was 1.35 and the “Survival Rate” value (influenza A/PR/8/34; [11]) was 100. For the same compound, the “Efficiency Quotient (% survival/(% body weight loss at Day 8)*(Penh at Day 6))” value (influenza A/PR/8/34; [12]) was 2.97, the “Survival Rate” value (influenza A/PR/8/34; [12]) was 100 and the “Efficiency Quotient (% survival/(% body weight loss at Day 8)*(Penh at Day 6))” value (influenza A/PR/8/34; [13]) was 1.00. For the same compound, the “Survival Rate” value (influenza A/PR/8/34; [13]) was 75, the “Efficiency Quotient (% survival/(% body weight loss at Day 8)*(Penh at Day 6))” value (influenza A/PR/8/34; [14]) was 1.61 and the “Survival Rate” value (influenza A/PR/8/34; [14]) was 100. For the same compound, the “Efficiency Quotient (% survival/(% body weight loss at Day 8)*(Penh at Day 6))” value (influenza A/PR/8/34; [15]) was 2.31, the “Survival Rate” value (influenza A/PR/8/34; [15]) was 100 and the “Efficiency Quotient (% survival/(% body weight loss at Day 8)*(Penh at Day 6))” value (influenza A/PR/8/34; [16]) was 1.30. For the same compound, the “Survival Rate” value (influenza A/PR/8/34; [16]) was 100, the “Efficiency Quotient (% survival/(% body weight loss at Day 8)*(Penh at Day 6))” value (influenza A/PR/8/34; [17]) was 1.48 and the “Survival Rate” value (influenza A/PR/8/34; [17]) was 100. The “Efficiency Quotient (% survival/(% body weight loss at Day 8)*(Penh at Day 6))” value (influenza A/PR/8/34; [18]) was 4.28, the “Survival Rate” value (influenza A/PR/8/34; [18]) was 100 and the tolerability ([3]; 100 mg to 1200/600 mg QD for 5 days, healthy volunteers) was “well tolerated”. For the same compound, the “Adverse event: Alanine aminotransferase increased” value ([3]; 100 mg, N = 16) was 3 (18.8) n(%), the “Adverse event: Aspartate aminotransferase increased” value ([3]; 100 mg, N = 16) was 1 (6.3) n(%) and the “Adverse event: Blood phosphorus decreased” value ([3]; 100 mg, N = 16) was 3 (18.8) n(%). For the same compound, the “Adverse event: Dermatitis contact” value ([3]; 100 mg, N = 16) was 3 (18.8) n(%), the “Adverse event: Headache” value ([3]; 100 mg, N = 16) was 1 (6.3) n(%) and the “Adverse event: Influenza-like illness” value ([3]; 100 mg, N = 16) was 8 (50.0) n(%). For the same compound, the “Adverse event: Malaise” value ([3]; 100 mg, N = 16) was 2 (12.5) n(%), the “Adverse event: Nasal congestion” value ([3]; 100 mg, N = 16) was 0 n(%) and the “Adverse event: Nausea” value ([3]; 100 mg, N = 16) was 0 n(%). For the same compound, the “Adverse event: Oropharylngeal pain” value ([3]; 100 mg, N = 16) was 2 (12.5) n(%), the “Adverse event: Rhinorrhea” value ([3]; 100 mg, N = 16) was 0 n(%) and the “Adverse event: Spirometry abnormal” value ([3]; 100 mg, N = 16) was 2 (12.5) n(%). The “Adverse event: Tension Headache” value ([3]; 100 mg, N = 16) was 0 n(%), the “Adverse event: Alanine aminotransferase increased” value ([3]; 400 mg, N = 19) was 1 (5.3) n(%) and the “Adverse event: Aspartate aminotransferase increased” value ([3]; 400 mg, N = 19) was 1 (5.3) n(%). The “Adverse event: Blood phosphorus decreased” value ([3]; 400 mg, N = 19) was 0 n(%) and the “Adverse event: Dermatitis contact” value ([3]; 400 mg, N = 19) was 0 n(%).
